Test results from the kinase profiling compilation of Christmann-Franck et al. (2016).
Where “and” joins values, the source holds several entries; their conditions need not be identical. Equal values may be shown once.

Legend:
Assay in all cases: radiometric filter-binding kinase assay, Kinase HotSpot
Conditions in all cases: compound 0.5 µM; ATP 10 µM
[1] = biological target: FYN (human) (UniProt P06241)
[2] = biological target: PDPK1 (human) (UniProt O15530)
[3] = biological target: NTRK3 (human) (UniProt Q16288)
[4] = biological target: PIM3 (human) (UniProt Q86V86)
[5] = biological target: CDK6 CCND1 (human) (UniProt Q00534+P24385)
[6] = biological target: TBK1 (human) (UniProt Q9UHD2)
[7] = biological target: JAK3 JH1 JH2 (human) (UniProt P52333)
[8] = biological target: ITK (human) (UniProt Q08881)
[9] = biological target: PAK7 (human) (UniProt Q9P286)
[10] = biological target: KIT (human) (UniProt P10721)
[11] = biological target: NEK9 (human) (UniProt Q8TD19)
[12] = biological target: DAPK2 (human) (UniProt Q9UIK4)
[13] = biological target: PKN2 (human) (UniProt Q16513)
[14] = biological target: FGFR1 (human) (UniProt P11362)
[15] = biological target: PAK3 (human) (UniProt O75914)
[16] = biological target: MAPK8 (human) (UniProt P45983)
[17] = biological target: IKBKE (human) (UniProt Q14164)
[18] = biological target: NTRK2 (human) (UniProt Q16620)
[19] = biological target: DAPK3 (human) (UniProt O43293)
[20] = biological target: CSNK1D (human) (UniProt P48730)
[21] = biological target: STK39 (human) (UniProt Q9UEW8)
[22] = biological target: DMPK (human) (UniProt Q09013)
[23] = biological target: CDK5 CDK5R1 p25 (human) (UniProt Q00535+Q15078)
[24] = biological target: PKN1 (human) (UniProt Q16512)
[25] = biological target: PRKCA (human) (UniProt P17252)
[26] = biological target: CAMK1D (human) (UniProt Q8IU85)
[27] = biological target: TSSK1B (human) (UniProt Q9BXA7)
[28] = biological target: LYN (human) (UniProt P07948)
[29] = biological target: CDK5 CDK5R1 p35 (human) (UniProt Q00535+Q15078)
[30] = biological target: MARK2 (human) (UniProt Q7KZI7)
[31] = biological target: NEK6 (human) (UniProt Q9HC98)
[32] = biological target: EGFR (human) (UniProt P00533)
[33] = biological target: MAPK3 (human) (UniProt P27361)
[34] = biological target: CSNK1G2 (human) (UniProt P78368)
[35] = biological target: PAK4 (human) (UniProt O96013)
[36] = biological target: CAMK2G (human) (UniProt Q13555)
[37] = biological target: SGK3 (human) (UniProt Q96BR1)
[38] = biological target: ERBB4 (human) (UniProt Q15303)
[39] = biological target: LIMK1 (human) (UniProt P53667)
[40] = biological target: PRKCZ (human) (UniProt Q05513)
[41] = biological target: MAP3K11 (human) (UniProt Q16584)
[42] = biological target: ABL1 (human) (UniProt P00519)

LIMK1 (human), sequence (P53667 whole entry, looked up): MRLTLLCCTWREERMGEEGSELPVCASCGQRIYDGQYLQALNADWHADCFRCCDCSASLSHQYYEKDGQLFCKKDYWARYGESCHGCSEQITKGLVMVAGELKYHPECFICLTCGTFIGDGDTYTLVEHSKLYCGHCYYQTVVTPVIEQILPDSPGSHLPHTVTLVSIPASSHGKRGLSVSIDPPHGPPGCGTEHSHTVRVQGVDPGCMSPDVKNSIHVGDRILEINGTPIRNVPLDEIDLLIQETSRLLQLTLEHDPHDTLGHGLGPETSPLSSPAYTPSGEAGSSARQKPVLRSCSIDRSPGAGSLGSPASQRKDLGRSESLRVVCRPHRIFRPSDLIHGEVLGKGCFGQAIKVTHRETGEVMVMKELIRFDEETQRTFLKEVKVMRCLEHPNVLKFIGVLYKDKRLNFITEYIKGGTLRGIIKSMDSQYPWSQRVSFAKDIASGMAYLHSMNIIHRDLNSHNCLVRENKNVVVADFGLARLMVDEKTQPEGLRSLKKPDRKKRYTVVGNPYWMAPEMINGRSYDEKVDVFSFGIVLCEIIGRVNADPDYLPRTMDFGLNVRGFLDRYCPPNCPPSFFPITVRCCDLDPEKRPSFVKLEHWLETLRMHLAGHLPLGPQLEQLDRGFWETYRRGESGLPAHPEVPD
DAPK3 (human), sequence (O43293 whole entry, looked up): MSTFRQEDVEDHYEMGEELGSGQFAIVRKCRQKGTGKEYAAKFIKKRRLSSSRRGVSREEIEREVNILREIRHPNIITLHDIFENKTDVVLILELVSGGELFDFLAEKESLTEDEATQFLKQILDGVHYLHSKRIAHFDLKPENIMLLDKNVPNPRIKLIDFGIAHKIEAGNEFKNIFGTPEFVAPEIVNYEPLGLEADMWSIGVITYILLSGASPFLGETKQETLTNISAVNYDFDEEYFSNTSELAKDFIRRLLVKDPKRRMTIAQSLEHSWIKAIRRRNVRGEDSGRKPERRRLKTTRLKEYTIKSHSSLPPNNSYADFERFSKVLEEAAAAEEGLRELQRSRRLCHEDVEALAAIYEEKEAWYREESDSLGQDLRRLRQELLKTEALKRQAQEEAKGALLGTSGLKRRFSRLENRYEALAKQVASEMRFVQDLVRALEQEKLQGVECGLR
CAMK1D (human), sequence (Q8IU85 whole entry, looked up): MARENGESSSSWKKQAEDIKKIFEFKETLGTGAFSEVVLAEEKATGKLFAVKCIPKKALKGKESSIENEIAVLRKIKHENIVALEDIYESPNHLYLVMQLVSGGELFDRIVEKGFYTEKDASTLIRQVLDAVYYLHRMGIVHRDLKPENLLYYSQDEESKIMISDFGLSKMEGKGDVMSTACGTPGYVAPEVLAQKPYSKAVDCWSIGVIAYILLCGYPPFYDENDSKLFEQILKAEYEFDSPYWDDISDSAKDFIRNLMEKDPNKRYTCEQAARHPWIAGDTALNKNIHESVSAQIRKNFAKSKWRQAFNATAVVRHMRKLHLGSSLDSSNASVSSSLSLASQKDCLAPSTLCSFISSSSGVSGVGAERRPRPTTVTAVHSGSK
FYN (human), sequence (P06241 whole entry, looked up): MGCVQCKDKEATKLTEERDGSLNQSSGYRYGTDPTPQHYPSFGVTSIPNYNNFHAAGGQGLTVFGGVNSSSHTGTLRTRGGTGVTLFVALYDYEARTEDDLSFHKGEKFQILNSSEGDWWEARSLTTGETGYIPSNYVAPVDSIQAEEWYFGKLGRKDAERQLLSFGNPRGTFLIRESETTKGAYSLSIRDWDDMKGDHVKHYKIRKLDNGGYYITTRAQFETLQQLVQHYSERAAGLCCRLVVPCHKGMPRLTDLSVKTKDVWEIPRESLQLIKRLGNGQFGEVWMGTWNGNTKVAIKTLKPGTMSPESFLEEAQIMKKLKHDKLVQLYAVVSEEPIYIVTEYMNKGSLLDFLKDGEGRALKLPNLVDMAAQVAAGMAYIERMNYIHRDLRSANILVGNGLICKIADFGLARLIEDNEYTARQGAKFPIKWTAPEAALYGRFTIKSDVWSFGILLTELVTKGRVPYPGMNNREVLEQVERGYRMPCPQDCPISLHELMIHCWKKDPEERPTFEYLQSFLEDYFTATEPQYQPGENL
CSNK1D (human), sequence (P48730 whole entry, looked up): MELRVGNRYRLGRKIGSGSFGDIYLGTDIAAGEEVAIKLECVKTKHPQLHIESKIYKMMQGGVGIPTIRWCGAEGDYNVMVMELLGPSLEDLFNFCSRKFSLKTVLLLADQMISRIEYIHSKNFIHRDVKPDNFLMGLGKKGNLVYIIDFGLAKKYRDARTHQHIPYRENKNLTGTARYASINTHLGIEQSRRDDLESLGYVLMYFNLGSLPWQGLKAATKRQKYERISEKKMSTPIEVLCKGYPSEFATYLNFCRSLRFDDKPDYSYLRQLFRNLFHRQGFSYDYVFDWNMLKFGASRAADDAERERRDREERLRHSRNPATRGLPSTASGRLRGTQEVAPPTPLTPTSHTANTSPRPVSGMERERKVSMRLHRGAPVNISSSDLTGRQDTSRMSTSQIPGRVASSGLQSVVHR
SGK3 (human), sequence (Q96BR1 whole entry, looked up): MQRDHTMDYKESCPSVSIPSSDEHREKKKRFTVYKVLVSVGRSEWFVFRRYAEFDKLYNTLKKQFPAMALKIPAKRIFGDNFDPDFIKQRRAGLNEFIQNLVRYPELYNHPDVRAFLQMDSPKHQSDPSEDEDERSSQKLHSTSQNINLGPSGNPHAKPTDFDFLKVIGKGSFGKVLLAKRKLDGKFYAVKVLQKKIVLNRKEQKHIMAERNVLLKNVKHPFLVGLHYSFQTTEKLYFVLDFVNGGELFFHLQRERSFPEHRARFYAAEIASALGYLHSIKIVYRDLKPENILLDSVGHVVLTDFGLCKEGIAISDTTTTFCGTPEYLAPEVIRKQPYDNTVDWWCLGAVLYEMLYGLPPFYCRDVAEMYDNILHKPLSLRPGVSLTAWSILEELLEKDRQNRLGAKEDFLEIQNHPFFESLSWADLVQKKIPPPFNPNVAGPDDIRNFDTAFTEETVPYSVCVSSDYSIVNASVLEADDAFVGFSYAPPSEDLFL
TBK1 (human), sequence (Q9UHD2 whole entry, looked up): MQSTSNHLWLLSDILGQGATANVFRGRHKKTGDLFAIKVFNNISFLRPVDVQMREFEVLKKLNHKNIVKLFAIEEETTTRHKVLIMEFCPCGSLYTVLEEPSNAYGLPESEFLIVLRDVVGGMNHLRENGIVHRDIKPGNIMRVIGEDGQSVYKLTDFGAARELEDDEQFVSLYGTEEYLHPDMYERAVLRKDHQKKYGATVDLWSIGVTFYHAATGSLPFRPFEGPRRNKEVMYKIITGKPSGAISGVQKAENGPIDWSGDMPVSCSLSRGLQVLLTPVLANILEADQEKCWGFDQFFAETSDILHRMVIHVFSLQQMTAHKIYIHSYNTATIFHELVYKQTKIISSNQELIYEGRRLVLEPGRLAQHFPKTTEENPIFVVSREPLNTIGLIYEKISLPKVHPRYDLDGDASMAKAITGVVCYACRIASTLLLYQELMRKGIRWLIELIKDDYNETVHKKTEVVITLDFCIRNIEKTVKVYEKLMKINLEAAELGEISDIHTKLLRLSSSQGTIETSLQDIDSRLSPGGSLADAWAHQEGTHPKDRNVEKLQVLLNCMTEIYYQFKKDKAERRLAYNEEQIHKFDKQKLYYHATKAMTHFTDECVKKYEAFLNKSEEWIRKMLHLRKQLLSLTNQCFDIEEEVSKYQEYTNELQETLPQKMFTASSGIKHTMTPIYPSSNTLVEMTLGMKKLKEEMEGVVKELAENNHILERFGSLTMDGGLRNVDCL
IKBKE (human), sequence (Q14164 whole entry, looked up): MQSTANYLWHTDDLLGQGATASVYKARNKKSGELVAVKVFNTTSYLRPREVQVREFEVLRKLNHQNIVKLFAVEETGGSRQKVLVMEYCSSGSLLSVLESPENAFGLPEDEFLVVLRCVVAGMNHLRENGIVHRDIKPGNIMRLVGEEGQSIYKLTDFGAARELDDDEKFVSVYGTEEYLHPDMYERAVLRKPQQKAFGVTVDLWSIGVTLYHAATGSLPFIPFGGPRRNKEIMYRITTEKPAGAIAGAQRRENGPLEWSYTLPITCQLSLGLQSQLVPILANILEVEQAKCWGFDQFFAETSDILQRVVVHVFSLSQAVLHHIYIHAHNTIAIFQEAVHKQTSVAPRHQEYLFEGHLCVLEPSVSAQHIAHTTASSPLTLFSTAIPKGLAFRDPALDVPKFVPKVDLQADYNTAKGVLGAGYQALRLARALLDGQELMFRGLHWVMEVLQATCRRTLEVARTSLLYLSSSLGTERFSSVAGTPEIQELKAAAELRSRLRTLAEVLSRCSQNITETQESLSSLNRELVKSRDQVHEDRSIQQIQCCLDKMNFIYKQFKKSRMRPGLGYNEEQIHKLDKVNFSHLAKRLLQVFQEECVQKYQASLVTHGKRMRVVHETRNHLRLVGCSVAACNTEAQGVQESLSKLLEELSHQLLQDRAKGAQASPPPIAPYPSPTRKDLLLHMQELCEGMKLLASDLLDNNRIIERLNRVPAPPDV

O=C1Nc2ccc(Br)cc2/C1=C\c1cc2c([nH]1)CCCC2
residual activity [1]: 87.5%
residual activity [2]: 95.3%
residual activity [3]: 11.9%
residual activity [4]: 87.5%
residual activity [5]: 90.4%
residual activity [6]: 66.9%
residual activity [7]: 89.3%
residual activity [8]: 87.5%
residual activity [9]: 85.4%
residual activity [10]: 30.5%
residual activity [11]: 85.6%
residual activity [12]: 102%
residual activity [13]: 91.3%
residual activity [14]: 76.7%
residual activity [15]: 96.4%
residual activity [16]: 107%
residual activity [17]: 89.5%
residual activity [18]: 43.6%
residual activity [19]: 92.8%
residual activity [20]: 72.4%
residual activity [21]: 86%
residual activity [22]: 101%
residual activity [23]: 91.3%
residual activity [24]: 91.7%
residual activity [25]: 102%
residual activity [26]: 96.8%
residual activity [27]: 36.1%
residual activity [28]: 70.8% and 86.8%
residual activity [29]: 84.6%
residual activity [30]: 77%
residual activity [31]: 103%
residual activity [32]: 87.4%
residual activity [33]: 95%
residual activity [34]: 96.8%
residual activity [35]: 76.8%
residual activity [36]: 92.4%
residual activity [37]: 97.6%
residual activity [38]: 84.6%
residual activity [39]: 83%
residual activity [40]: 104%
residual activity [41]: 16.8%
residual activity [42]: 91.8%

Cc1cccc(-c2nc(C(C)(C)C)[nH]c2-c2ccc3c(c2)OCO3)n1
residual activity [1]: 108%
residual activity [2]: 89.8%
residual activity [3]: 92.4%
residual activity [4]: 106%
residual activity [5]: 95.2%
residual activity [6]: 91.9%
residual activity [7]: 92.6%
residual activity [8]: 95.8%
residual activity [9]: 92.7%
residual activity [10]: 93.6%
residual activity [11]: 95.6%
residual activity [12]: 102%
residual activity [13]: 93.5%
residual activity [14]: 90.8%
residual activity [15]: 95.9%
residual activity [16]: 95.7%
residual activity [17]: 91.8%
residual activity [18]: 96.4%
residual activity [19]: 97%
residual activity [20]: 63.4%
residual activity [21]: 107%
residual activity [22]: 102%
residual activity [23]: 90.1%
residual activity [24]: 108%
residual activity [25]: 99.6%
residual activity [26]: 102%
residual activity [27]: 103%
residual activity [28]: 82.8% and 99.2%
residual activity [29]: 98.5%
residual activity [30]: 90%
residual activity [31]: 109%
residual activity [32]: 96.4%
residual activity [33]: 111%
residual activity [34]: 104%
residual activity [35]: 77.5%
residual activity [36]: 85.5%
residual activity [37]: 98%
residual activity [38]: 83.1%
residual activity [39]: 86.2%
residual activity [40]: 87.9%
residual activity [41]: 96.2%
residual activity [42]: 100%

COc1ccc(S(=O)(=O)N(CCO)c2ccccc2CN(C)C/C=C/c2ccc(Cl)cc2)cc1
residual activity [1]: 103%
residual activity [2]: 93.7%
residual activity [3]: 95.3%
residual activity [4]: 105%
residual activity [5]: 92.7%
residual activity [6]: 97.1%
residual activity [7]: 97%
residual activity [8]: 97.1%
residual activity [9]: 107%
residual activity [10]: 103%
residual activity [11]: 91.9%
residual activity [12]: 107%
residual activity [13]: 101%
residual activity [14]: 99.5%
residual activity [15]: 102%
residual activity [16]: 104%
residual activity [17]: 93.7%
residual activity [18]: 104%
residual activity [19]: 101%
residual activity [20]: 102%
residual activity [21]: 92.8%
residual activity [22]: 105%
residual activity [23]: 97.7%
residual activity [24]: 110%
residual activity [25]: 98.2%
residual activity [26]: 103%
residual activity [27]: 103%
residual activity [28]: 92.3% and 96.8%
residual activity [29]: 99.9%
residual activity [30]: 95.5%
residual activity [31]: 103%
residual activity [32]: 106%
residual activity [33]: 95.1%
residual activity [34]: 103%
residual activity [35]: 101%
residual activity [36]: 98.6%
residual activity [37]: 106%
residual activity [38]: 104%
residual activity [39]: 102%
residual activity [40]: 100%
residual activity [41]: 99.3%
residual activity [42]: 100%

COc1cc2ncnc(Nc3ccc(OCc4ccccc4)cc3)c2cc1OC
residual activity [1]: 86.3%
residual activity [2]: 103%
residual activity [3]: 93.8%
residual activity [4]: 119%
residual activity [5]: 96.7%
residual activity [6]: 101%
residual activity [7]: 108%
residual activity [8]: 96.2%
residual activity [9]: 99.6%
residual activity [10]: 63%
residual activity [11]: 104%
residual activity [12]: 99.9%
residual activity [13]: 94.1%
residual activity [14]: 91.3%
residual activity [15]: 97.7%
residual activity [16]: 102%
residual activity [17]: 99.7%
residual activity [18]: 92.5%
residual activity [19]: 99.2%
residual activity [20]: 96.6%
residual activity [21]: 95.8%
residual activity [22]: 104%
residual activity [23]: 97.8%
residual activity [24]: 101%
residual activity [25]: 93.9%
residual activity [26]: 104%
residual activity [27]: 106%
residual activity [28]: 91.2% and 92.8%
residual activity [29]: 103%
residual activity [30]: 108%
residual activity [31]: 97.6%
residual activity [32]: 21.3%
residual activity [33]: 98.4%
residual activity [34]: 98.4%
residual activity [35]: 103%
residual activity [36]: 94.2%
residual activity [37]: 105%
residual activity [38]: 9.19%
residual activity [39]: 95.4%
residual activity [40]: 113%
residual activity [41]: 92.2%
residual activity [42]: 98%
